Results as given in patent publication US20250288658A1 (priority 2022, published 2025).
Bridge positions count the residues as written; N and C are the ends. Square brackets hold non-standard residues; d marks the D form. Side chains are listed from the residue outwards. Peptide text beside a SMILES is read from it. * marks the point of attachment. ξ: configuration not given here. Acetyl(2-S-3ξ-cholesteryl) = CC(C)CCC[C@@H](C)[C@H]1CC[C@H]2[C@@H]3CC=C4CC(SCC(=O)*)CC[C@]4(C)[C@H]3CC[C@]12C; R8 = C=CCCCCCC[C@@](C)(N)C(=O)O; PEG4 = NCCOCCOCCOCCOCCC(=O)O; S5 = C=CCCC[C@](C)(N)C(=O)O

System: wild type EBOV
Details: 24 h

CC[C@H](C)[C@H](NC(=O)[C@H](C)NC(=O)[C@H](CS)NC(=O)[C@H](CC(=O)O)NC(=O)[C@@H]1CCCN1C(=O)CNC(=O)[C@H](CC(C)C)NC(=O)[C@@H](NC(=O)[C@H](Cc1c[nH]cn1)NC(=O)[C@H](CS)NC(=O)[C@@H](NC(C)=O)[C@@H](C)O)[C@@H](C)CC)C(=O)N[C@@H](CCC(=O)O)C(=O)N1CCC[C@H]1C(=O)N[C@@H](Cc1c[nH]cn1)C(=O)N[C@@H](CC(=O)O)C(=O)N[C@@H](Cc1c[nH]c2ccccc12)C(=O)N[C@H](C(=O)N[C@]1(C)CCCCCCC=CCCC[C@@](C)(C(=O)N[C@@H](CCC(N)=O)C(=O)N[C@H](C(=O)N[C@H](C(=O)N[C@@H](Cc2c[nH]cn2)C(=O)N[C@@H](CC(=O)O)C(=O)N[C@@H](Cc2ccccc2)C(=O)N[C@H](C(=O)N[C@@H](CCCCNC(=O)CCOCCOCCOCCOCCNC(=O)CSC2CC[C@@]3(C)C(=CC[C@H]4[C@@H]5CC[C@H]([C@H](C)CCCC(C)C)[C@@]5(C)CC[C@@H]43)C2)C(N)=O)C(C)C)[C@@H](C)CC)[C@@H](C)CC)NC(=O)[C@H]([C@@H](C)CC)NC(=O)[C@H](CCCCN)NC(=O)[C@H](CC(=O)O)NC(=O)[C@H]([C@@H](C)O)NC(=O)[C@H]([C@@H](C)CC)NC(=O)[C@H](CC(N)=O)NC1=O)[C@@H](C)O (stereo partly shown) [SEQ ID NO:22, TCHILGPDCAIEPHDWT8NITDKIXQIIHDFV*] (Ac-TCHILGPDCAIEPHDWT[R8]NITDKI[S5]QIIHDFVK([PEG4-Acetyl(2-S-3ξ-cholesteryl)])-NH2; staple 18-25) showed an IC50 of roughly 1500 nM.
